Data as given in patent publication US8053447B2, “11β-hydroxysteroid dehydrogenase type 1 active compounds” (High Point Pharmaceuticals, LLC, priority 2006, dated 2011).

Target: T1, h-11βHSD1 (Homo sapiens, UniProt P28845)
T1 construct: made in house
Assay: 11βHSD1 enzyme assay (scintillation proximity assay, 3H-cortisone to 3H-cortisol)
Type: biochemical
Settings: extract of yeast transformed with h-11βHSD1; 120 nM 3H-cortisone, 4 mM β-NADPH, 60 min at 30° C., SPA
Protocol: Pharmacological Methods 11βHSD1 Enzyme Assay Materials
^3H-cortisone and anti-rabbit Ig coated scintillation proximity assay (SPA) beads were purchased from Amersham Pharmacia Biotech, β-NADPH was from Sigma and rabbit anti-cortisol antibodies were from Fitzgerald. An extract of yeast transformed with h-11βHSD1 (Hult et al., FEBS Lett, 441, 25 (1998)) was used as the source of enzyme. The test compounds were dissolved in DMSO (10 mM). All dilutions were performed in a buffer containing 50 mM TRIS-HCl (Sigma Chemical Co), 4 mM EDTA (Sigma Chemical Co), 0.1% BSA (Sigma Chemical Co), 0.01% Tween-20 (Sigma Chemical Co) and 0.005% bacitracin (Novo Nordisk A/S), pH=7.4. Optiplate 96 wells plates were supplied by Packard. The amount of ^3H-cortisol bound to the SPA beads was measured on TopCount NXT, Packard.
h-11βHSD1, 120 nM ^3H-cortisone, 4 mM β-NADPH, antibody (1:200), serial dilutions of test compound and SPA particles (2 mg/well) were added to the wells. The reaction was initiated by mixing the different components and was allowed to proceed under shaking for 60 min at 30° C. The reaction was stopped be the addition of 10 fold excess of a stopping buffer containing 500 μM carbenoxolone and 1 μM cortisone. Data was analysed using GraphPad Prism software.

T1 sequence (P28845 whole entry): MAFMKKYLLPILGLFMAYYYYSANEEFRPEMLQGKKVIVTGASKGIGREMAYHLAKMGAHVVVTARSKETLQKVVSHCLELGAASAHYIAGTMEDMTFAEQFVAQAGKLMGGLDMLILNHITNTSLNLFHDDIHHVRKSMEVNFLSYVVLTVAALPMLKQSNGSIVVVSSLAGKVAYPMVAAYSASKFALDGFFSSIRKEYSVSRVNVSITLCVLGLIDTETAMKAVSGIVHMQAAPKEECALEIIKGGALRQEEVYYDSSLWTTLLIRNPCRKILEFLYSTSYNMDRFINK

IC50	Structure (SMILES)
2.19 µM	CCS(=O)(=O)N1CCC(COc2ccc(C(=O)N(C)C3C4CC5CC3CC(O)(C5)C4)cc2)CC1 (centres unmarked) [Example 7f, 4-(1-Ethanesulfonyl-piperidin-4-ylmethoxy)-N-(5-hydroxy-adamantan-2-yl)-N-methyl-benzamide]
0.604 µM	CC1(C)CC2CC(C)(CN2C(=O)c2ccc(OC3CCC(C(=O)O)C3)cc2)C1 (centres unmarked) [Example 8a, 3-[4-(1,3,3-Trimethyl-6-aza-bicyclo[3.2.1]octane-6-carbonyl)-phenoxy]-cyclopentane carboxylic acid]
1.65 µM	CN(C(=O)c1ccc(OC2CCC(NC(=O)C3CC3)CC2)cc1)C1C2CC3CC1CC(O)(C3)C2 (centres unmarked) [Example 8c, 4-[4-(Cyclopropanecarbonyl-amino)-cyclohexyloxy]-N-(5-hydroxy-adamantan-2-yl)-N-methyl-benzamide]
0.266 µM	O=C(O)c1cccc(S(=O)(=O)N2CCC(COc3ccc(C(=O)N4CCCC5CCCCC54)cc3)CC2)c1 (centres unmarked) [Example 8f, 3-{4-[4-(Octahydro-quinoline-1-carbonyl)-phenoxymethyl]-piperidine-1-sulfonyl}-benzoic acid]
0.163 µM	O=C(O)c1ccc(S(=O)(=O)N2CCC(COc3ccc(C(=O)N4CCCC5CCCCC54)cc3)CC2)cc1 (centres unmarked) [Example 9f, 4-{4-[4-(Octahydro-quinoline-1-carbonyl)-phenoxymethyl]-piperidine-1-sulfonyl}-benzoic acid]
0.111 µM	CN(C)C(=O)C1CCC(Oc2ccc(C(=O)N3CC4(C)CC3CC(C)(C)C4)cc2)CC1 (centres unmarked) [Example 12a, 4-[4-(1,1,3,3-Trimethyl-6-aza-bicyclo[3.2.1]octane-6-carbonyl)-phenoxy]-cyclo-hexane carboxylic acid di-methylamide]
0.073 µM	NC(=O)C1CCC(Oc2ccc(C(=O)N3CCCC4CCCCC43)cc2)CC1 (centres unmarked) [Example 13a, 4-[4-(Octahydro-quinoline-1-carbonyl)-phenoxy]-cyclo-hexanecarboxylic acid amide]
0.36 µM	CC1(C)CC2CC(C)(CN2C(=O)c2ccc(OC3CCC(C(=O)O)CC3)cc2)C1 (centres unmarked) [Example A, 4-[4-(1,3,3-Trimethyl-6-aza-bicyclo[3.2.1]octane-6-carbonyl)-phenoxy]cyclohexanecarboxylic acid]
1.07 µM	O=C(NC1CCC(Oc2ccc(C(=O)N3C4CCC3CC(O)C4)cc2)CC1)C1CC1 (centres unmarked) [Example C, Cyclopropanecarboxylic acid {4-[4-(3-hydroxy-8-aza-bicyclo[3.2.1]octane-8-carbonyl)-phenoxy]-cyclohexyl}-amide]
0.295 µM	O=C(NC1C2CC3CC(C2)CC1C3)c1ccc(OC2CCC(COc3ccccn3)CC2)cc1 (centres unmarked) [Example E, 4-[4-(Pyridin-2-yl-oxy-methyl)-cyclohexyloxy]-N-adamantan-2-yl-benzamide]
0.134 µM	O=C(c1ccc(OCC2CCN(S(=O)(=O)c3ccccn3)CC2)cc1)N1CCCC2CCCCC21 (centres unmarked) [Example F, (Octahydro-quinolin-1-yl)-{4-[1-(pyridine-2-sulfonyl)-piperidin-4-ylmethoxy]-phenyl}-methanone]
1.18 µM	O=C(c1ccc(OC2CCN(C(=O)c3ccc(Cl)nc3)C2)cc1)N1CC2CCC(CC2)C1 (centres unmarked) [Example G, {3-[4-(3-Aza-bicyclo[3.2.2]nonane-3-carbonyl)-phenoxy]-pyrrolidin-1-yl}-(6-chloro-pyridin-3-yl)-methanone]
0.043 µM	O=C(NC1C2CC3CC(C2)CC1C3)c1ccc(N2CC3CC2CO3)cc1 (centres unmarked) [Example H, 4-(2-Oxa-5-aza-bicyclo[2.2.1]hept-5-yl)-N-adamantan-2-yl-benzamide]

Structure (SMILES)	IC50
O=C(c1ccc(OC2CCN(C(=O)C3CC3)CC2)cc1)N1CC2CCC(CC2)C1 [Example B, (3-Aza-bicyclo[3.2.2]non-3-yl)-[4-(1-cyclopropane-carbonyl-piperidin-4-yloxy)-phenyl]-methanone]	1.35 µM
